Data reported in US20230150951A1, “2,5- OR 2,6-DISUBSTITUTED HYDROQUINONE DERIVATIVES WITH AT LEAST ONE CARBOXY, SULFO OR AMIDO GROUP USEFUL AS MEDICAMENTS” (OM PHARMA SA, priority 2020, published 2023).

Assays:
COX2 (cycloxygenase-2) = target: T1, COX2 (cycloxygenase-2) (Homo sapiens, UniProt P35354); assay: Cyclooxygenase enzyme inhibition; assay type: biochemical
T1 sequence (P35354 18-604): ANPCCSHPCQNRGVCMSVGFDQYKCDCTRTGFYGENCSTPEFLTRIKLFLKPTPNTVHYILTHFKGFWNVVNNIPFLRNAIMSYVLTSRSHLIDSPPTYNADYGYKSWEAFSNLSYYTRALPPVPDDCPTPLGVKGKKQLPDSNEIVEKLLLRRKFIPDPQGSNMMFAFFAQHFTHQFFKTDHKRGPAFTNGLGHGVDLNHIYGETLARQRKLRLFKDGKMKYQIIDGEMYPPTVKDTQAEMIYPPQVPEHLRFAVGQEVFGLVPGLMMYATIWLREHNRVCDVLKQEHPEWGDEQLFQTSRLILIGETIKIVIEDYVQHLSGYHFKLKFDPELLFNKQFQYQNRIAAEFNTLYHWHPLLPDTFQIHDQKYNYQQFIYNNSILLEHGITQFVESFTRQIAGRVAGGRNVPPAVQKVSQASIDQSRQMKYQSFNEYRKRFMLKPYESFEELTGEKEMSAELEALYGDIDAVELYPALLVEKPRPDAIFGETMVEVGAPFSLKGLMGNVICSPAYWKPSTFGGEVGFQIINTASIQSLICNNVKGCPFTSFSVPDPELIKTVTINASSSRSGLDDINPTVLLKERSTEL

[1] = tested on: STZ-induced diabetes model; assay: STZ-induced diabetes and diabetic wound healing model; assay type: in vivo, CD-1 mice; settings: IV; vs induced vehicle controls
Experimental: Diabetes murine models using streptozotocin (STZ-induced diabetes) were used to assess efficacy of compounds of the present invention for a diabetic wound healing and generate tissue samples to allow post in-life analysis of skin tissue.
These were purchased from Charles River and acclimated for 7 days upon arrival.
Aseptic technique and dosing: Although animals to be used in this study are immuno-competent, preparation of dosing solutions and dosing/weighing of animals were carried out in a sterile biosafety cabinet. IV dosing: Compounds were formulated in 5% DMSO: 10% Solutol: 10% PEG400: 75% PBS and pH adjusted to 7 with 0.5M NaOH solution. PO dosing: formulation is in water.
Animals were anaethetised and a full thickness 6 mm wound created using a sterilized biopsy punch. Wounds were imaged (Days 0). Animals were treated and imaged every 2 days out to day 14 (when control, non-diabetic mouse wounds were healed). Wound images were digitally assessed for area of wound and percentage closure versus time plotted graphically.
Treatment will continue for 2 weeks (14 days). Animal numbers in brackets are dosed for 7 days, then sampled for mid-study PD analysis.
Mid Study sampling: Following 7 days dosing 3 animals per group were killed and wound tissue removed and divided into 2 sections (A) and (B):
(A) First section is FFPE and stained with the following: H&E, Masson's Trichrome, CD31, TGF-β.
(B) Second section are homogenised and used for the following ELISAs: SOD, GTPx, Catalase, TNF-α, IL-6, TGF-β levels.

ARPE-19 cells = assay: ROS and cytokine/VEGF mRNA production by ARPE-19 monolayer cells in non-diabetic and diabetic milieu; assay type: cell-based, human; settings: ARPE19 monolayer; for ROS: ROS % to 25 mM D-Glucose; for IL-1β R.Q. mRNA / IL-6 R.Q. mRNA / IL-18 R.Q. mRNA / TNFα R.Q. mRNA / VEGF R.Q. mRNA: relative change vs 25 mM D-Gluc
Experimental: Outer Blood Retinal Barrier conditions: human retinal pigment epithelial cells (RPE) cultures ARPE-19, a spontaneously immortalised human RPE cell line were obtained from American Type Culture Collection (Manassas, Va., USA). ARPE-19 cells and they were cultured in euglycaemic conditions (D-glucose (D-Glc), 5.5 mmol/L) and hyperglycaemic conditions (D-glucose, 25 mmol/L) for 18 days at 37° C. under 5% (vol./vol.) CO2 in medium (DMEM/F12) supplemented with 10% (vol./vol.) FBS (Hyclone; Thermo Fisher Scientific, UT, USA) and 1% (vol./vol.) penicillin/streptomycin (Hyclone; Thermo Fisher Scientific). ARPE-19 cells from passage 20 were used and the medium changed every 3-4 days. For permeability studies, ARPE-19 cells were seeded at 400,000 cells/ml (80,000 RPE cells/well) in 0.33 cm^2 HTS-Transwells (Costar; Corning, N.Y., USA). For real-time PCR, western blot analysis and immunofluorescence cells are seeded at 20,000 cells/ml.
Experimental conditions and treatments: apart from the euglycemic condition, eighteen different conditions were tested in cells cultured under 25 mmol/L D-glucose:
• Proinflammatory cytokines were evaluated in ARPE-19 cells by RT-PCR and mRNA for IL-6, TNF-α, IL-1β, IL-18, VEGF, IL-10, FGF were measured using the double delta CT method 2-ΔΔCT with Cts values for the gene of interest and the endogenous human B-actin to obtain ΔCT; mRNA values were expressed as relative change with respect to the condition 25 mM D-Gluc. (ref: Livak K J, Analysis of Relative Gene Expression Data Using Real-Time Quantitative PCR and the 2-ΔΔCT Method, Methods, 2001, 25(4), 402-408, doi 10.1006/meth.2001.1262) • ROS production was evaluated using Cell Biolabs' OxiSelect™ Intracellular ROS Assay (Green Fluorescence) (Bionova, Madrid, Spain). The assay employs the cell-permeable fluorogenic probe 2′, 7′-Dichlorodihydrofluorescin diacetate (DCFH-DA), oxidized to highly fluorescent 2′, 7′-Dichlorodihydrofluorescein (DCF) by cellular ROS. • Endothelin-1, PDGF and VCAM-1 expression was analyzed in HREC monolayers by immunohistochemical analysis and by RT-PCR. • TJ expression (ZO) is analyzed in ARPE-19 and HREC monolayers by immunohistochemical analysis.

[2] = 25 mM D-Gluc, compound 25 μg/mL
[3] = 25 mM D-Gluc, compound 50 μg/mL
[4] = diabetic milieu (25 mM D-Gluc + VEGF, TNF-α, IL-1β), compound 25 μg/mL
[5] = diabetic milieu (25 mM D-Gluc + VEGF, TNF-α, IL-1β), compound 50 μg/mL

SMILES	Inhibition of COX2 (COX2 (cycloxygenase-2))	Blood glucose levels [1]	ROS (ARPE-19 cells; [2]) [%]	IL-1β R.Q. mRNA (ARPE-19 cells; [2]) [R.Q.]	IL-6 R.Q. mRNA (ARPE-19 cells; [2]) [R.Q.]	IL-18 R.Q. mRNA (ARPE-19 cells; [2]) [R.Q.]	TNFα R.Q. mRNA (ARPE-19 cells; [2]) [R.Q.]	VEGF R.Q. mRNA (ARPE-19 cells; [2]) [R.Q.]	ROS (ARPE-19 cells; [3]) [%]	IL-1β R.Q. mRNA (ARPE-19 cells; [3]) [R.Q.]	IL-6 R.Q. mRNA (ARPE-19 cells; [3]) [R.Q.]	IL-18 R.Q. mRNA (ARPE-19 cells; [3]) [R.Q.]	TNFα R.Q. mRNA (ARPE-19 cells; [3]) [R.Q.]	VEGF R.Q. mRNA (ARPE-19 cells; [3]) [R.Q.]	ROS (ARPE-19 cells; [4]) [%]	IL-1β R.Q. mRNA (ARPE-19 cells; [4]) [R.Q.]	IL-6 R.Q. mRNA (ARPE-19 cells; [4]) [R.Q.]	IL-18 R.Q. mRNA (ARPE-19 cells; [4]) [R.Q.]	TNFα R.Q. mRNA (ARPE-19 cells; [4]) [R.Q.]	VEGF R.Q. mRNA (ARPE-19 cells; [4]) [R.Q.]	further results
O=C(O)c1cc(O)c(CN(Cc2cc(O)c(C(=O)O)cc2O)Cc2cc(O)c(C(=O)O)cc2O)cc1O [IIIc-061a, Tris(4-carboxy-2,5-dihydroxyphenylmethyl)amine]	partially inhibition	significant reduction																			
O=C(O)c1cc(NC(=O)c2cc(O)cc(C(=O)Nc3ccc(O)c(C(=O)O)c3)c2O)ccc1O [IIc-007a, 5-(3-(3-carboxy-4-hydroxyphenylaminocarbonyl)-2,5-dihydroxybenzamido)-2-hydroxy benzoic acid]	partially inhibition		55 ± 6.4	0.74 ± 0.26	0.73 ± 0.00	0.75 ± 0.09	0.57 ± 0.18	0.06 ± 0.01	72 ± 11	0.24 ± 0.11	0.34 ± 0.08	0.04 ± 0.00	0.45 ± 0.30	0.12 ± 0.03	47 ± 7.6	41.03 ± 17.57	10.83 ± 6.90	0.07 ± 0.01	6.31 ± 0.06	0.11 ± 0.01	ROS (ARPE-19 cells; [5]): 74 ± 38 %; IL-1β R.Q. mRNA (ARPE-19 cells; [5]): 11.39 ± 6.52 R.Q.; IL-6 R.Q. mRNA (ARPE-19 cells; [5]): 1.50 ± 1.19 R.Q.; IL-18 R.Q. mRNA (ARPE-19 cells; [5]): 0.03 ± 0.00 R.Q.; TNFα R.Q. mRNA (ARPE-19 cells; [5]): 4.24 ± 0.77 R.Q.; VEGF R.Q. mRNA (ARPE-19 cells; [5]): 0.13 ± 0.02 R.Q.
O=C(O)c1cc(O)cc(CS(=O)(=O)Cc2cc(O)cc(C(=O)O)c2O)c1O [IVc-059a, 3-((2,5-Dihydroxy-3-carboxyphenyl)methylsulfonylmethyl)-2,5-dihydroxybenzoic acid]	partially inhibition	significant reduction	62 ± 9	0.20 ± 0.05	0.28 ± 0.11	0.07 ± 0.01	0.27 ± 0.08	0.11 ± 0.01	116 ± 12	0.21 ± 0.13	0.28 ± 0.11	0.04 ± 0.01	0.27 ± 0.10	0.06 ± 0.03	61 ± 40	20.81 ± 5.11	5.84 ± 1.13	0.03 ± 0.01	5.39 ± 1.01	0.04 ± 0.00	ROS (ARPE-19 cells; [5]): 159 ± 32%; IL-1β R.Q. mRNA (ARPE-19 cells; [5]): 27.76 ± 5.18 R.Q.; IL-6 R.Q. mRNA (ARPE-19 cells; [5]): 9.78 ± 2.30 R.Q.; IL-18 R.Q. mRNA (ARPE-19 cells; [5]): 0.01 ± 0.00 R.Q.; TNFα R.Q. mRNA (ARPE-19 cells; [5]): 3.61 ± 1.82 R.Q.; VEGF R.Q. mRNA (ARPE-19 cells; [5]): 0.20 ± 0.03 R.Q.
O=C(O)c1cc(O)c(C(=O)Nc2ccccc2C(=O)O)cc1O [Ia-001a, 4-(2-carboxyphenylaminocarbonyl)-2,5-dihydroxybenzoic acid]		significant reduction																			
O=C(O)c1cc(NC(=O)c2cc(O)c(C(=O)Nc3ccc(O)c(C(=O)O)c3)cc2O)ccc1O [Ic-007a, 5-(4-(3-carboxy-4-hydroxyphenylaminocarbonyl)-2,5-dihydroxybenzamido)-2-hydroxy benzoic acid]	partially inhibition		32 ± 15	0.12 ± 0.01	0.52 ± 0.49	0.45 ± 0.18	0.27 ± 0.07	0.09 ± 0.02	26 ± 4.6	0.15 ± 0.03	0.20 ± 0.07	0.07 ± 0.01	0.59 ± 0.33	0.12 ± 0.03	33 ± 4.8	12.21 ± 1.46	0.52 ± 0.49	0.02 ± 0.00	11.26 ± 0.96	0.06 ± 0.02	ROS (ARPE-19 cells; [5]): 27 ± 13 %; IL-1β R.Q. mRNA (ARPE-19 cells; [5]): 10.66 ± 3.01 R.Q.; IL-6 R.Q. mRNA (ARPE-19 cells; [5]): 3.28 ± 1.46 R.Q.; IL-18 R.Q. mRNA (ARPE-19 cells; [5]): 0.02 ± 0.00 R.Q.; TNFα R.Q. mRNA (ARPE-19 cells; [5]): 5.22 ± 3.96 R.Q.; VEGF R.Q. mRNA (ARPE-19 cells; [5]): 0.17 ± 0.05 R.Q.
